Reference: patent US10174037B2, “Dihydropyrazolopyrimidinone compounds as PDE2 inhibitors” (Merck Sharp & Dohme Corp., priority 2015, dated 2019)

Biological target: human PDE2A1 (Homo sapiens (Human), UniProt O00408)
Experiment: PDE selectivity IMAP FP assay, human PDE2A1
Type: biochemical
Settings: Human PDE2; Lab B; read-out: Human PDE2 Ki (nM) Lab B
Protocol: Selectivity for PDE2, as compared to other PDE families, was assessed using the IMAP® technology. Human PDE10A2 enzyme was prepared from cytosolic fractions of transiently transfected HEK cells.
A Labcyte POD 810 (Labcyte, Sunnyvale, Calif.) was used to dispense 200 nL from each well of the titration plate to make eleven copies of the assay plate for each titration, one copy for each PDE enzyme. A solution of each enzyme (dilution from aliquots, sufficient to produce 20% substrate conversion) and a separate solution of FAM-labeled cAMP or FAM-labeled cGMP from Molecular Devices (Sunnyvale, Calif., product # R7506 or cGMP#R7508), at a final concentration of 50 nM were made in the assay buffer (10 mM Tris HCl, pH 7.2, 10 mM MgCl2, 0.05% NaN3 0.01% Tween-20, and 1 mM DTT). Note that the substrate for PDE2 is 50 nM FAM cAMP containing 1000 nM of cGMP. The enzyme and the substrate were then added to the assay plates in two consecutive additions of 10 μL and then shaken to mix. The reaction was allowed to proceed at room temperature for 60 minutes. A binding solution was then made from the kit components, comprised of 80% Solution A, 20% Solution B and binding reagent at a volume of 1/600 the total binding solution. The enzymatic reaction was stopped by addition of 60 μL of the binding solution to each well of the assay plate. […] The plates were incubated at room temperature for one hour, then the parallel and perpendicular fluorescence was measured using a Tecan Genios Pro plate reader (Tecan, Switzerland). […] The intrinsic PDE2 inhibitory activity of a compound which may be used in accordance with the present invention may be determined by these assays. […]
The PDE2 Ki is a measure of the ability of the test compound to inhibit the action of the PDE2 enzyme.

human PDE2A1, sequence (O00408 other isoform, or with tags, fused parts or gaps): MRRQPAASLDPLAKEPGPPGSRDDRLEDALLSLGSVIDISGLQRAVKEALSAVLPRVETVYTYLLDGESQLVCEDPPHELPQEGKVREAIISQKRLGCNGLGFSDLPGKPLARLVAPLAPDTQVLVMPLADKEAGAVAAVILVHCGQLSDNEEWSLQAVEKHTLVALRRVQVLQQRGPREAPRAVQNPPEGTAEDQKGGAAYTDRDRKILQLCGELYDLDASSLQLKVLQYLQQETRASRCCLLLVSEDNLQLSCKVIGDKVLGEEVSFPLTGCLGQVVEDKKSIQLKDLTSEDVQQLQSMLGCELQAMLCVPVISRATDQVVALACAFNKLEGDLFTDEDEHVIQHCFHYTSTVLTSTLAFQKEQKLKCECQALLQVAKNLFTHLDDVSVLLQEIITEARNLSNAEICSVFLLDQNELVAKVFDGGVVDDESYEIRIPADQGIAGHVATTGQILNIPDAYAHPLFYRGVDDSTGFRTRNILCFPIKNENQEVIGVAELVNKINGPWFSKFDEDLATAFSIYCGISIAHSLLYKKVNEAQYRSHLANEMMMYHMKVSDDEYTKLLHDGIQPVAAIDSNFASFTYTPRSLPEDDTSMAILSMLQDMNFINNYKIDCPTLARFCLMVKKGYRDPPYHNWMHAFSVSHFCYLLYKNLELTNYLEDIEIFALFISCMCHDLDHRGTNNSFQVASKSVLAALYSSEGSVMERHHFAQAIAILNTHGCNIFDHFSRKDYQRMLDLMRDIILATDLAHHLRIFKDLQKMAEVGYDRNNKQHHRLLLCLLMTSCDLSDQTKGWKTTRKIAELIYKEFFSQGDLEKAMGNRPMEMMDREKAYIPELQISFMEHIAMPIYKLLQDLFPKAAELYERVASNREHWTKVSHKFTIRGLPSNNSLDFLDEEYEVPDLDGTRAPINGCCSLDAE

Row | SMILES | Ki [nM]
1 | CCC(c1ccc(C(F)(F)F)cc1)n1nc(CF)c2c(=O)[nH]c(N(C)C)nc21 (single isomer, unassigned) [Example 172, (R)- or (S)-6-(Dimethylamino)-3-(fluoromethyl)-1-(1-(4-(trifluoromethyl)phenyl)propyl)-1H-pyrazolo[3,4-d]pyrimidin-4(5H)-one] | 2.2
2 | CC(c1ccc(CC(F)(F)F)cc1)n1nc(CF)c2c(=O)[nH]c(N(C)C)nc21 (single isomer, unassigned) [Example 174, (R)- or (S)-6-(Dimethylamino)-3-(fluoromethyl)-1-(1-(4-(2,2,2-trifluoroethyl)phenyl)ethyl)-1H-pyrazolo[3,4-d]pyrimidin-4(5H)-one] | 2.7
3 | CC(c1ccc(CC(F)(F)F)cc1)n1nc(CF)c2c(=O)[nH]c(N(C)C)nc21 (single isomer, unassigned) [Example 175, (S)- or (R)-6-(Dimethylamino)-3-(fluoromethyl)-1-(1-(4-(2,2,2-trifluoroethyl)phenyl)ethyl)-1H-pyrazolo[3,4-d]pyrimidin-4(5H)-one] | 0.39
4 | CN(C)c1nc2c(c(CF)nn2C(c2ccc(C(F)(F)F)cc2)C2CC2)c(=O)[nH]1 (single isomer, unassigned) [Example 178, (R)- or (S)-1-(Cyclopropyl(4-(trifluoromethyl)phenyl)methyl)-6-(dimethylamino)-3-(fluoromethyl)-1H-pyrazolo[3,4-d]pyrimidin-4(5H)-one] | 1.1
5 | CN(C)c1nc2c(c(CF)nn2C(c2ccc(C(F)(F)F)c(F)c2)C2CC2)c(=O)[nH]1 (single isomer, unassigned) [Example 180, (R)- or (S)-1-(Cyclopropyl(3-fluoro-4-(trifluoromethyl)phenyl)methyl)-6-(dimethylamino)-3-(fluoromethyl)-1H-pyrazolo[3,4-d]pyrimidin-4(5H)-one] | 1.2
6 | CC(c1ccc(C(F)(F)F)cc1F)n1nc(CF)c2c(=O)[nH]c(N(C)C)nc21 (single isomer, unassigned) [Example 187, (S)- or (R)-6-(Dimethylamino)-1-(1-(2-fluoro-4-(trifluoromethyl)phenyl)ethyl)-3-(fluoromethyl)-1H-pyrazolo[3,4-d]pyrimidin-4(5H)-one] | 19
7 | CC(c1ccc(C(F)F)cc1)n1nc(CF)c2c(=O)[nH]c(N(C)C)nc21 (single isomer, unassigned) [Example 190, (R)- or (S)-1-(1-(4-(Difluoromethyl)phenyl)ethyl)-6-(dimethylamino)-3-(fluoromethyl)-1H-pyrazolo[3,4-d]pyrimidin-4(5H)-one] | 27
8 | CC(c1ccc(C(C)(F)F)cc1)n1nc(CF)c2c(=O)[nH]c(N(C)C)nc21 (single isomer, unassigned) [Example 194, (R)- or (S)-1-(1-(4-(1,1-Difluoroethyl)phenyl)ethyl)-6-(dimethylamino)-3-(fluoromethyl)-1H-pyrazolo[3,4-d]pyrimidin-4(5H)-one] | 6.1
9 | CC(c1ccc(C(F)F)c(F)c1)n1nc(CF)c2c(=O)[nH]c(N(C)C)nc21 (single isomer, unassigned) [Example 197, (S)- or (R)-1-(1-(4-(Difiuoromethyl)-3-fluorophenyl)ethyl)-6-(dimethylamino)-3-(fluoromethyl)-1H-pyrazolo[3,4-d]pyrimidin-4(5H)-one] | 18
10 | CCC(c1ccc(C(F)(F)F)cc1F)n1nc(CF)c2c(=O)[nH]c(N(C)C)nc21 (single isomer, unassigned) [Example 199, (S)- or (R)-6-(Dimethylamino)-1-(1-(2-fluoro-4-(trifluoromethyl)phenyl)propyl)-3-(fluoromethyl)-1H-pyrazolo[3,4-d]pyrimidin-4(5H)-one] | 1.1
11 | CC(C)C(c1ccc(C(F)(F)F)cc1F)n1nc(CF)c2c(=O)[nH]c(N(C)C)nc21 (single isomer, unassigned) [Example 201, (S)- or (R)-6-(Dimethylamino)-1-(1-(2-fluoro-4-(trifluoromethyl)phenyl)-2-methylpropyl)-3-(fluoromethyl)-1H-pyrazolo[3,4-d]pyrimidin-4(5H)-one] | 1.2
12 | CCC(c1ccc(C(C)(F)F)cc1)n1nc(CF)c2c(=O)[nH]c(N(C)C)nc21 (single isomer, unassigned) [Example 204, (R)- or (S)-1-(1-(4-(1,1-Difluoroethyl)phenyl)propyl)-6-(dimethylamino)-3-(fluoromethyl)-1H-pyrazolo[3,4-d]pyrimidin-4(5H)-one] | 1.4
13 | CC(c1ccc(C(C)(F)F)cc1F)n1nc(CF)c2c(=O)[nH]c(N(C)C)nc21 (single isomer, unassigned) [Example 208, (R)- or (S)-1-(1-(4-(1,1-Difluoroethyl)-2-fluorophenyl)ethyl)-6-(dimethylamino)-3-(fluoromethyl)-1H-pyrazolo[3,4-d]pyrimidin-4(5H)-one] | 20
14 | CC(c1ccc(C(C)(F)F)c(F)c1)n1nc(CF)c2c(=O)[nH]c(N(C)C)nc21 (single isomer, unassigned) [Example 210, (R)- or (S)-1-(1-(4-(1,1-Difluoroethyl)-3-fluorophenyl)ethyl)-6-(dimethylamino)-3-(fluoromethyl)-1H-pyrazolo[3,4-d]pyrimidin-4(5H)-one] | 3.3
15 | CC(c1ccc(C(C)(F)F)c(F)c1)n1nc(CF)c2c(=O)[nH]c(N(C)C)nc21 (single isomer, unassigned) [Example 211, (S)- or (R)-1-(1-(4-(1,1-Difluoroethyl)-3-fluorophenyl)ethyl)-6-(dimethylamino)-3-(fluoromethyl)-1H-pyrazolo[3,4-d]pyrimidin-4(5H)-one] | 0.048
16 | CCC(c1ccc(C(C)(F)F)cc1F)n1nc(CF)c2c(=O)[nH]c(N(C)C)nc21 (single isomer, unassigned) [Example 215, (S)- or (R)-1-(1-(4-(1,1-Difluoroethyl)-2-fluorophenyl)propyl)-6-(dimethylamino)-3-(fluoromethyl)-1H-pyrazolo[3,4-d]pyrimidin-4(5H)-one] | 0.98
17 | CCC(c1ccc(C(F)(F)F)c(F)c1)n1nc(CF)c2c(=O)[nH]c(N(C)C)nc21 (single isomer, unassigned) [Example 223, (S)- or (R)-6-(Dimethylamino)-1-(1-(3-fluoro-4-(trifluoromethyl)phenyl)propyl)-3-(fluoromethyl)-1H-pyrazolo[3,4-d]pyrimidin-4(5H)-one] | 1.8
18 | CC(C)(C)C(c1ccc(C(F)(F)F)c(F)c1)n1nc(CC(F)(F)F)c2c(=O)[nH]c(O)nc21 (single isomer, unassigned) [Example 246, (R)- or (S)-1-(1-(3-Fluoro-4-(trifluoromethyl)phenyl)-2,2-dimethylpropyl)-6-hydroxy-3-(2,2,2-trifluoroethyl)-1H-pyrazolo[3,4-d]pyrimidin-4(5H)-one] | 408
19 | CC(C)(C)C(c1ccc(C(F)(F)F)c(F)c1)n1nc(CC(F)(F)F)c2c(=O)[nH]c(O)nc21 (single isomer, unassigned) [Example 247, (S)- or (R)-1-(1-(3-Fluoro-4-(trifluoromethyl)phenyl)-2,2-dimethylpropyl)-6-hydroxy-3-(2,2,2-trifluoroethyl)-1H-pyrazolo[3,4-d]pyrimidin-4(5H)-one] | > 2960
20 | CC1(C(c2ccc(C(F)(F)F)c(F)c2)n2nc(CC(F)(F)F)c3c(=O)[nH]c(O)nc32)CC1 (single isomer, unassigned) [Example 248, (R)- or (S)-1-((3-Fluoro-4-(trifluoromethyl)phenyl)(1-methylcyclopropyl)methyl)-6-hydroxy-3-(2,2,2-trifluoroethyl)-1H-pyrazolo[3,4-d]pyrimidin-4(5H)-one] | 47
21 | CC1(C(c2ccc(C(F)(F)F)c(F)c2)n2nc(CC(F)(F)F)c3c(=O)[nH]c(O)nc32)CC1 (single isomer, unassigned) [Example 249, (S)- or (R)-1-((3-Fluoro-4-(trifluoromethyl)phenyl)(1-methylcyclopropyl)methyl)-6-hydroxy-3-(2,2,2-trifluoroethyl)-1H-pyrazolo[3,4-d]pyrimidin-4(5H)-one] | 841
22 | O=c1[nH]c(O)nc2c1c(C(F)F)nn2C(CC(F)(F)F)c1ccc(C(F)(F)F)cc1 (single isomer, unassigned) [Example 271] | 911
23 | O=c1[nH]c(O)nc2c1c(C(F)F)nn2C(CC(F)(F)F)c1ccc(C(F)(F)F)cc1 (single isomer, unassigned) [Example 272] | 43
24 | CC(c1ccc(C2CC2)cc1)n1nc(C(F)F)c2c(=O)[nH]c(O)nc21 (single isomer, unassigned) [Example 275, (R)- or (S)-1-(1-(4-Cyclopropylphenyl)ethyl)-3-(difluoromethyl)-6-hydroxy-1H-pyrazolo[3,4-d]pyrimidin-4(5H)-one] | 416
25 | CC(c1ccc(C2CC2)cc1)n1nc(C(F)F)c2c(=O)[nH]c(O)nc21 (single isomer, unassigned) [Example 276, (S)- or (R)-1-(1-(4-Cyclopropylphenyl)ethyl)-3-(difluoromethyl)-6-hydroxy-1H-pyrazolo[3,4-d]pyrimidin-4(5H)-one] | 3.6
